From patent US10947188B2, “Small molecule ferroptosis inducers” (THE TRUSTEES OF COLUMBIA UNIVERSITY IN THE CITY OF NEW YORK, priority 2016, dated 2021)

What was measured:
GPX4 transcripts = assay: Reverse-transcription quantitative PCR of GPX4 transcripts; assay type: cell-based; settings: 5 μM FIN56
Description: Trypsinized 0.2 to 1 million cells grown in six-well dishes, pelleted them, resuspended them in Buffer RLT (Qiagen), and homogenized them with QlAshredder (Qiagen). RNA was further extracted using the RNeasy Mini Kit (Qiagen). We converted 2 μg of extracted RNA from each sample into cDNA using TaqMan reverse-transcription reagents (Life Technologies). qPCR primers were designed to detect all splicing variants using Primer Express 2.0 (Applied Biosystems). The designed primers were confirmed to amplify only the designated gene transcripts using in silico PCR (see, e.g., http://genome.ucsc.edu/cgi-bin/hgPcr). For qPCR reactions, primers, cDNA, and Power SYBR Green PCR Master Mix (Applied Biosystems) were mixed, and quantitation was performed using a StepOnePlus real-time PCR system (Applied Biosystems). Experiments were done in biological triplicates.

truncated human SQS = biological target: T1, truncated human SQS (Homo sapiens, UniProt P37268); assay: SQS competition assay with purified truncated SQS, FIN56 and active probe; assay type: binding; settings: pre-incubation with 100 μM FIN56 for two hours
T1 construct: truncated human squalene synthase (SQS 31-370) in pET28a expression vector; made in house; host or cells: Escherichia coli BL21-Gold (DE3)
T1 sequence (P37268 31-370): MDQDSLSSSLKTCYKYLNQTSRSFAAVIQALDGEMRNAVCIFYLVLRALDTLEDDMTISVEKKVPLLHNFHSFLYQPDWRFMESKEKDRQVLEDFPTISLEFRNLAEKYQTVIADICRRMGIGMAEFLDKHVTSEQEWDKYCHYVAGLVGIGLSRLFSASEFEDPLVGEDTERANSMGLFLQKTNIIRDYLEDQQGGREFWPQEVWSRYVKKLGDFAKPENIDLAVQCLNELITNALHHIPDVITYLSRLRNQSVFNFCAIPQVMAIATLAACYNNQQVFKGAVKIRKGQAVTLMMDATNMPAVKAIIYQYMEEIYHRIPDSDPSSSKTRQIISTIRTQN
Description: Bacterial expression and purification of truncated human SQS for competition assay. The plasmid encoding the truncated human squalene synthase (SQS 31-370) in pET28a expression vector, kindly provided by Chia-I Liu and Andrew H. J. Wang (Academia Sinica, Taiwan), was confirmed by DNA sequencing (Gene Wiz, Inc.) and then used to transform Escherichia coli BL21-Gold (DE3) competent cells (Agilent Technologies). The cells with the construct were grown in LB media supplemented with 100 μg/mL […] at 37° C. until the OD600 reached 1. Protein expression was induced with 0.5 mM isopropyl β-D-thiogalactoside at 17° C. overnight (12-13 h). Cells were pelleted (4,000 g, 20 min, 4° C.) and lysed by sonication in SQS buffer (50 mM Tris, pH 7.4, 250 mM NaCl, 5 mM imidazole, 5 mM MgCl2, 1 mM TCEP). Cell lysate was then centrifuged at 15,000 g for 45 min at 4° C. The supernatant was loaded onto a chromatography column containing Ni Sepharose 6 Fast Flow beads (GE Life Sciences) equilibrated with SQS buffer. After two washes and one nonspecific wash of the beads, the bound SQS was eluted with 250 mM imidazole in the same buffer. The purity of eluted fractions was verified by SDS-PAGE as more than 90% pure. The fractions containing SQS were concentrated, flash-frozen, and stored at −80° C.
SQS competition assay with purified truncated SQS, FIN56, and active probe. […]

143B cells = assay: FIN56 lethality in 143B cells with or without mitochondrial DNA; assay type: cell-based; settings: ρ+ or ρ0 cells
Description: CoQ10 is an electron carrier in the mitochondrial respiratory chain and an endogenous antioxidant. However, whether it functions in the regulation of ferroptosis via either of these mechanisms remains to be elucidated. […] Thus, exactly how CoQ10 protects cells from FIN56 remains elusive, but the process may involve reprogramming of lipid metabolism in a way that is not conducive to the execution of ferroptosis, or a specific antioxidant action distinct from that of α-tocopherol.

competition of SQS binding to active affinity probe (truncated human SQS): efficiently suppressed
Structure (SMILES): O=S(=O)(NC1CCCCC1)c1ccc2c(c1)C(=NO)c1cc(S(=O)(=O)NC3CCCCC3)ccc1-2 [FIN56, N2,N7-dicyclohexyl-9-(hydroxyimino)-9H-fluorene-2,7-disulfonamide]
GPX4 transcript level (GPX4 transcripts): increased, rather than decreased | sensitivity of 143B cells with or without mitochondrial DNA (143B cells): both sensitive to FIN56-induced ferroptosis
